In patent publication US20080318954A1, “Compounds” (Cyclacel Limited, priority 2004, published 2008):

Experiments:
[1] = molecular target: T1, CDK2/cyclin A (Homo sapiens, UniProt P24941); assay: CDK/cyclin kinase assay, CDK2/cyclin A; format: biochemical
T1 construct: His6 (N); made in house; host or cells: Sf9 insect cells (baculovirus)
Protocol: CDK4/cyclin D1, CDK1/cyclin B, CDK2/cyclin E, CDK2/cyclin A, CDK9/cyclin T1 and CDK7/cyclin H, all with a His6 tag on the N-terminus, were expressed in Sf9 insect cells using an appropriate baculovirus construct. Sf9 culture (1.6×10^6 cells/mL) was infected (MOI of 3) for two days. The cells were harvested by low speed centrifugation and the protein was purified from the insect cell pellet by metal affinity chromatography. In short: the insect cell pellet was lysed in Buffer A (10 mM Tris-HCl pH 8.0, 150 mM NaCl, 0.02% NP-40, 5 mM β-mercaptoethanol, 20 mM NaF, 1 mM Na3VO4, and Sigma Protease Inhibitor Cocktail) by sonication. The soluble fraction was cleared by centrifugation and loaded onto Ni-NTA-Agarose (Qiagen). Non-bound protein was washed off with 300 mM NaCl, 5-15 mM imidazole in buffer A and the bound protein was eluted with buffer A supplemented with 250 mM imidazole. The purified proteins were extensively dialyzed against storage buffer (20 mM HEPES pH 7.4, 50 mM NaCl, 2 mM DTT, 1 mM EDTA, 1 mM EGTA, 0.02% NP-40, 10% v/v glycerol) and stored at −70° C.
Compounds were investigated for their CDK2/cyclin E, CDK2/cyclin A, CDK1/cyclin B, and CDK4/cyclin D1 inhibitory activity. His6-tagged recombinant human cyclin-dependent kinases CDK1/cyclin B1, CDK2/cyclin E, CDK2/cyclin A, and CDK4 were expressed in sf9 insect cells using a baculovirus expression system. Recombinant cyclin D1 was expressed in E. coli. Proteins were purified by metal chelate affinity chromatography to greater than 90% homogeneity. Kinase assays were performed in 96-well plates using recombinant CDK/cyclins. Assays were performed in assay buffer (25 mM β-glycerophosphate, 20 mM MOPS, 5 mM EGTA, 1 mM DTT, 1 mM […], pH 7.4), into which were added 2-4 μg of active enzyme with appropriate substrates (purified histone H1 for CDK1 and CDK2, recombinant GST-retinoblastoma protein (residues 773-928) for CDK4). The reaction was initiated by addition of Mg/ATP mix (15 mM MgCl2+100 μM ATP with 30-50 kBq per well of [γ-^32P]-ATP) and mixtures incubated for 10-45 min, as required, at 30° C. Reactions were stopped on ice, followed by filtration through p81 or GF/C filterplates (for CDK4) (Whatman Polyfiltronics, Kent, UK). After washing 3 times with 75 mM aq orthophosphoric acid, plates were dried, scintillant added and incorporated radioactivity measured in a scintillation counter (TopCount, Packard Instruments, Pangbourne, Berks, UK). Compounds for kinase assays were made up as 10 mM stocks in DMSO and diluted into 10% DMSO in assay buffer. Data was analysed using curve-fitting software (GraphPad Prism version 3.00 for Windows, GraphPad Software, San Diego Calif. USA) to determine IC50 values (concentration of test compound which inhibits kinase activity by 50%).

[2] = test system: glycogen synthase activity in 3T3 mouse adipocytes; assay: Glycogen synthase (GS) assay in 3T3 mouse adipocytes; format: cell-based
Protocol: Mouse pre-adipocytes 3T3-F442A were seeded at 9×10^5 cells per 10 cm dish in DMEM 10% FCS, containing penicillin/streptomycin. When 90% confluent, the same medium was supplemented with 1 μg/mL insulin. After 3-5 days (when most cells were differentiated) insulin was removed and 4 days later the cells were ready to use.
Cells on 10 cm dishes (Human Embryonic Kidney (HEK) 293 cells, L6 rat myocytes, or 3T3 mouse adipocytes) were treated with different concentrations of GSK3-inhibitors or DMSO vehicle for 90 min. Incubation medium was removed and cells were washed with ice-cold phosphate-buffered saline (PBS) prior to lysis on ice in 50 mM HEPES, pH 7.5, 10 mM EDTA, 100 mM NaF, 5 mM DTT, protease inhibitor cocktail (Sigma). After a freeze/thaw cycle the samples are sonicated for 10 sec and centrifuged at 15,000 g for 10 min at 4° C. Lysate supernatants were snap-frozen on liquid nitrogen and stored at −80° C. Lysates were assayed for glycogen synthase activity in buffer (50 mM Tris-HCl, pH 7.8, 20 mM EDTA, 25 mM NaF, 5 mM DTT, 1% glycogen, 0.3 mM UDP-glucose and 0.06 μCi of [^14C]-UDP-glucose in the presence of 0.1 or 10 mM glucose-6-phosphate. The reaction was carried out for 30 min at 30° C. 70 μL of the reaction mixture (total volume 90 μL) were transferred to a GFC 96-well filter plate (bottom sealed with foil), containing 140 μL 96% ethanol. The GFC plate was incubated for 1 h on ice and than washed with 66% ethanol. To each well 100 μL scintillant liquid was added and the radioactivity of the samples was measured using a scintillation counter (Topcount, HP). Data are expressed as -fold increase in glycogen synthase activity ratios over those of control samples.

[3] = test system: β-catenin-LEF/TCF transcriptional activity in HEK293 cells; assay: β-Catenin-LEF/TCF regulated reporter gene assay; format: cell-based, human; conditions: up to 10 μM
From the text: Furthermore, the effect of compound XIV on the β-catenin-dependent transcriptional activity, as measured in a luciferase based reporter gene assay, was studied.
HEK293 cells were transfected with either β-catenin-LEF/TCF-sensitive or β-catenin-LEF/TCF-insensitive reporter vector (Upstate Biotechnology, Inc.) using Lipofectamine Plus reagent (GibcoBRL) according to the manufacturer's instructions. The next day, cells were trypsinized, washed into serum-free medium, counted and seeded at 40,000 cells per well in a 96-well plate. Subsequent to cell attachment, LiCl or GSK-3 inhibitor compound were added to the medium to the required concentrations. Control cells were DMSO vehicle treated. 16 h after inhibitor addition, cells were analyzed for luciferase activity using the Steady-Glo Luciferase assay system (Promega) according to the manufacturer's instructions.

[4] = molecular target: T2, SAPK3/p38g (Homo sapiens, UniProt P53778); assay: Protein kinase panel selectivity screen, SAPK3/p38g; format: biochemical; conditions: 1 μM compound; [ATP] 5 μM
T2 construct: Dundee University (panel)
T2 sequence (P53778 whole entry): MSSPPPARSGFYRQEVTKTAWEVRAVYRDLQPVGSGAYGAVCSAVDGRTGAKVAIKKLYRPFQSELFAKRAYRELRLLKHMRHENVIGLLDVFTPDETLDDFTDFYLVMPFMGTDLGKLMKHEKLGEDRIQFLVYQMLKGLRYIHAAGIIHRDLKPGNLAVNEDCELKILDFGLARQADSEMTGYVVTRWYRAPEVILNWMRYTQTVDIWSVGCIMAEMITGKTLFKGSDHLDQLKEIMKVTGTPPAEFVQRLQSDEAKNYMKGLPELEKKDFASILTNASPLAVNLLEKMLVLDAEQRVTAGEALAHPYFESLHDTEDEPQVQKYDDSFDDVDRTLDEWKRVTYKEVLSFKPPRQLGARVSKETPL
Protocol: (§1) The names of the 29 kinases comprising the selectivity screen, as well as the ATP concentrations used in each kinase case, are given in Table 5. The kinase assays were carried out as described previously.
(§2) Compound XIV at a concentration of 1 μM was screened in the 29-kinase panel (Dundee University) and the results are shown bellow in Table 6.

[5] = molecular target: T3, CHK1 (Homo sapiens, UniProt O14757); assay: Protein kinase panel selectivity screen, CHK1; format: biochemical; conditions: 1 μM compound; [ATP] 20 μM
T3 construct: Dundee University (screening panel)
T3 sequence (O14757 whole entry, species assumed): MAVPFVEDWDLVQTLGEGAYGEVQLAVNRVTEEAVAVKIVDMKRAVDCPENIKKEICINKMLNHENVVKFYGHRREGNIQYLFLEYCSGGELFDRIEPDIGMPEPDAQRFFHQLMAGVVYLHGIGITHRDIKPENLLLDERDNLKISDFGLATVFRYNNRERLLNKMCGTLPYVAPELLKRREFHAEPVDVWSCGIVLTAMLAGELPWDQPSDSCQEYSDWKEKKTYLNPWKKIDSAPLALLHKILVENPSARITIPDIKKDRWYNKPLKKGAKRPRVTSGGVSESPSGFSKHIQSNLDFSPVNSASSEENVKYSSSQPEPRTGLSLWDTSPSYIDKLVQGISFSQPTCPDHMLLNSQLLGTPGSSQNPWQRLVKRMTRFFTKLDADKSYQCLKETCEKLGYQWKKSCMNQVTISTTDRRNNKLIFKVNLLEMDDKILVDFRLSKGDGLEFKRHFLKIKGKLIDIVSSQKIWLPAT
Protocol: as §1, §2

Clc1ccc(Nc2nccc(-c3nccs3)n2)cn1 [Compound XIV, (6-Chloro-pyridin-3-yl)-(4-thiazol-2-yl-pyrimidin-2-yl)-amine]
Ki [1]: > 50 µM | Fold selectivity for GSK3 over CDK2/cyclin A ([1]; from Ki): >3,125 fold | IC50 ([1]; read-out: Kinase inhibition IC50 CDK2/A): > 50 µM | Activation of GS relative to that induced by 40 mM LiCl ([2]; 3T3 adipocytes, 5 μM): approximately 2 fold | EC50 ([2]; Mus musculus, Adipocyte, 3T3 adipocytes, from dose-response curves, read-out: EC50 activation of glycogen synthase): 5 ± 2.3 µM | fold induction at 0.2 µM ([2]; Mus musculus, NIH3T3, 3T3 cells, 0.2 μM): 1.1 | fold induction at 1 µM ([2]; Mus musculus, NIH3T3, 3T3 cells, 1 μM): 2.5 | fold induction at 5 µM ([2]; Mus musculus, NIH3T3, 3T3 cells, 5 μM): 3.7 | fold induction at 10 µM ([2]; Mus musculus, NIH3T3, 3T3 cells, 10 μM): 4.8 | Activity of glycogen synthase (fractional velocity) ([2]; mouse adipocyte cells, ratio of activity at 0.1 and 10 mM glucose-6-phosphate): increased the activity of glycogen synthase | β-catenin transcriptional activity (luciferase reporter) [3]: No induction | activity at 1 µM [4]: 88 ± 3% | activity at 1 µM [5]: 78 ± 4%
